This is an account of results in ChEMBL document CHEMBL5465560, “Selectivity Literature for EUbOPEN Chemogenomic Library” (2024).

Type in all cases: cell-based
Holding throughout (conditions): at 1 µM

Assay [1] has as its target Receptor-type tyrosine-protein kinase FLT3 (Homo sapiens) (UniProt P36888). Put plainly: (§1) Selectivity interaction (Ambit KINOMEscan and KiNATiv profiling in Jurkat cells) EUB0000090b FLT3.
The test system of assay [2] is T1, Receptor-type tyrosine-protein kinase FLT3 (Homo sapiens), P36888 [K663Q].
T1 sequence (whole entry): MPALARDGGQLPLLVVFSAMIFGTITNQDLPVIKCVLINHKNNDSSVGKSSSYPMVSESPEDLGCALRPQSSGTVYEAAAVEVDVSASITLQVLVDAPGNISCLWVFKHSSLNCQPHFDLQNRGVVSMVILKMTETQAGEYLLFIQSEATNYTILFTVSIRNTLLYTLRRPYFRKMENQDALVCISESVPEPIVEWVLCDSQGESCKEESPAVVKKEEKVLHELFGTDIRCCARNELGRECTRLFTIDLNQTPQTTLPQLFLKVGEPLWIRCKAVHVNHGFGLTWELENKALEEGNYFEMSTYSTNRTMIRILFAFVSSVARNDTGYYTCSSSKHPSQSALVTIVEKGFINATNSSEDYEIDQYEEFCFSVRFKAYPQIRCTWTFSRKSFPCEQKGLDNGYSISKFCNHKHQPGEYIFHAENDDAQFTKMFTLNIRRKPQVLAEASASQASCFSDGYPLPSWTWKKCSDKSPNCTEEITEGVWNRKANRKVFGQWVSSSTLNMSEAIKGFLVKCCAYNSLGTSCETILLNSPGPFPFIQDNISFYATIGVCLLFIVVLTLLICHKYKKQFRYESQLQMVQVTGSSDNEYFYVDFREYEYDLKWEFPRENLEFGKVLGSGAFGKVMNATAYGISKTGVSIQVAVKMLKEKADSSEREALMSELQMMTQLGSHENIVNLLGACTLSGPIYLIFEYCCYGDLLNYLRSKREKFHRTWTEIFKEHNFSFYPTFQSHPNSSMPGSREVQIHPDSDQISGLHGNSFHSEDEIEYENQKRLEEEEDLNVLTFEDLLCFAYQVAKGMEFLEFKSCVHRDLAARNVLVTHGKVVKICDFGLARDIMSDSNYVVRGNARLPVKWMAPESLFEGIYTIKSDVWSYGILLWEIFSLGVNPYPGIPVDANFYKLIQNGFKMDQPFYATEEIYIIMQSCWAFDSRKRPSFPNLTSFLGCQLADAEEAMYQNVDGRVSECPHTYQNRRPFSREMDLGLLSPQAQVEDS
The description is as §1.

Assay [3] deals with T2, Receptor-type tyrosine-protein kinase FLT3 (Homo sapiens), P36888 [N841I].
T2 sequence (whole entry): T1 sequence (whole entry) with Q663K, N841I
Described as §1.

For assay [4], the system named is T3, Receptor-type tyrosine-protein kinase FLT3 (Homo sapiens), P36888 [R834Q].
T3 sequence (whole entry): T1 sequence (whole entry) with Q663K, R834Q
The description is as §1.

Positions count from the first letter of the chain named.

On to `CN(C)C/C=C/C(=O)Nc1ccc(C(=O)N2CCCC(Nc3ncc(Cl)c(-c4c[nH]c5ccccc45)n3)C2)cc1` (centres undefined), for which the % of control in assay [1] came out at 94%; in assay [2], 84%; in assay [3] it was 89%; in assay [4], 92%.
